16 compounds from PubChem BioAssay (NCI) can be followed below.

Holding throughout (assay): NCI tumour cell line growth inhibition, 48 h
Assay [1] deals with MOLT-4 leukemia.
The test system of assay [2] is IGROV1 ovarian.
Assay [3] deals with T-47D breast.
For assay [4], the system named is OVCAR-8 ovarian.
The test system of assay [5] is HL-60(TB) leukemia.
Assay [6] concerns UO-31 renal.
The test system of assay [7] is PC-3 prostate.
Assay [8] concerns NCI/ADR-RES ovarian.
The subject of assay [9] is UACC-62 melanoma.
In assay [10] the test system is U251 CNS.

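Cultured in 96-well plates, cells were exposed to test compound for 48 hours across five concentrations. At the GI50, growth is halved. TGI denotes the concentration required for complete inhibition of growth.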

In the case of `CCOC(=O)c1cnn2c3ccccc3n(S(=O)(=O)c3ccc(OC)cc3)c12`, the GI50 in [1] was 0.389 µM; in assay [2], 0.478 µM; in assay [3] it was 13.8 µM; in assay [4], 0.551 µM; in assay [5], 0.226 µM; in assay [6], 0.56 µM. The GI50 is 0.375 µM in assay [7], 0.23 µM in assay [8], 0.574 µM in assay [9] and 0.377 µM in [10]. In addition, the TGI in [1] is more than 100 µM; in assay [2], more than 100 µM; in assay [3] it was more than 100 µM; in assay [4], more than 100 µM; in assay [5], 0.695 µM; in assay [6], more than 78.7 µM. The TGI in [7] was more than 100 µM; in assay [8] it was 24.5 µM; in assay [9], more than 100 µM; in [10], more than 100 µM.

Regarding `COc1ccc(Cn2cc3c(c2-c2ccccc2)CCc2cnoc2-3)cc1N`, the GI50 was 0.398 µM in assay [1]; 0.329 µM in assay [2]; 3.86 µM in [3]; 0.468 µM in [4]; 0.137 µM in assay [5]; 0.967 µM in assay [6]. The GI50 in [7] is 0.551 µM; in assay [8], 0.0828 µM; in assay [9], 0.182 µM; in assay [10] it was 0.287 µM. Besides, the TGI in assay [1] was more than 96.1 µM; in assay [2], more than 100 µM; in assay [3], more than 100 µM; in assay [4] it was more than 100 µM; in assay [5] it was 0.617 µM; in assay [6], more than 100 µM. In addition, the TGI in assay [7], in assay [9] and in assay [10] was more than 100 µM each time.

For `Cc1cc(Nc2cc(N3CCN(C)CC3)nc(Sc3ccc(NC(=O)C4CC4)cc3)n2)n[nH]1`, the GI50 was 4.21 µM in [1]; 4.82 µM in [2]; more than 10 µM in [3]; 7.54 µM in assay [4]; 0.283 µM in assay [5]; 3.54 µM in assay [6]. Moreover, the GI50 in assay [7] is 4.24 µM; in assay [8], more than 10 µM; in assay [9] it was 1.53 µM; in assay [10] it was 3.05 µM. The TGI in assay [1], in assay [2], in assay [3], in assay [4], in assay [5] and in assay [6] was more than 10 µM in each case. In addition, the TGI in assay [7], in assay [8], in assay [9] and in assay [10] was more than 10 µM throughout.

`Cc1ccc(NCCN(C)C)c2c(=O)c3ccccc3sc12`: the GI50 in [1] is 1.13 µM; in assay [2], 1.5 µM; in assay [3] it was 1.82 µM; in assay [4], 3.16 µM; in assay [5], 1.72 µM; in assay [6] it was 1.28 µM. The GI50 in [7] is 1.97 µM; in assay [8] it was 1.93 µM; in [9], 1.69 µM; in [10] it was 1.83 µM. In addition, the TGI stood at 4.33 µM in assay [1]; 5.05 µM in [2]; 4.96 µM in [3]; 12.4 µM in [4]; 4.15 µM in assay [5]; 2.85 µM in [6]. Also, the TGI in [7] was 5.13 µM; in assay [8], 4.6 µM; in assay [9] it was 3.29 µM; in assay [10], 3.82 µM.

For `NC(=Nc1ccc(N)cc1)C(N)=Nc1ccc(N)cc1`, the GI50 was 55.5 µM in assay [1]; 79.1 µM in [2]; more than 100 µM in [3]; 69.1 µM in assay [4]; 57.1 µM in assay [5]; 33.5 µM in assay [6]. For the same compound, the GI50 in assay [7] was 98.6 µM; in [8], more than 100 µM; in [9] it was more than 100 µM; in assay [10], more than 100 µM. Moreover, the TGI in assay [1], in [2], in assay [3], in assay [4], in assay [5] and in assay [6] was more than 100 µM throughout. The TGI in [7], in [8], in assay [9] and in [10] was more than 100 µM throughout.

`CN(C)c1ccc(/C=c2/c3ccccc3n3c2c2cc(F)ccc2[n+]3C)cc1`: the GI50 in assay [1] is 8.63 µM; in assay [2], 5.98 µM; in [3] it was 3.42 µM; in assay [4], 3.83 µM; in assay [5] it was 0.954 µM; in [6], 8.21 µM. Moreover, the GI50 in assay [7] was 5.72 µM; in assay [8], 48.4 µM; in assay [10], 0.905 µM. In addition, the TGI in assay [1] was 27.5 µM; in assay [2] it was more than 36.7 µM; in [3], 16.7 µM; in assay [4], 16.4 µM; in assay [5] it was more than 100 µM; in assay [6] it was more than 34.3 µM. For the same compound, the TGI in assay [7] was 19.9 µM; in assay [8], more than 100 µM; in assay [9], 6.12 µM.

`COc1cc(C2C3=C(COC3=O)N(CCO)c3cc4c(cc32)OCO4)cc(OC)c1O` (stereo unspecified): the GI50 in [1] was 2.15 µM; in [2], 1.47 µM; in [3], 1.97 µM; in [4] it was 3.17 µM; in [5], 1.32 µM; in assay [6], 2.02 µM. Also, the GI50 was 1.54 µM in assay [7], 11.3 µM in assay [8] and 2.19 µM in assay [10]. The TGI was more than 24.9 µM in assay [1]; 6.08 µM in [2]; more than 50 µM in assay [3]; more than 50 µM in assay [4]; 3.26 µM in assay [5]; more than 37.2 µM in assay [6]. The TGI in [7], in [8], in assay [9] and in assay [10] was more than 50 µM in each case.

Consider `Clc1ccccc1C(Nc1ncccn1)Nc1ncccn1`, for which the TGI in assay [1], in [2], in assay [3], in assay [4], in assay [5] and in assay [6] was more than 100 µM throughout. Moreover, the TGI in assay [7], in assay [8], in [9] and in assay [10] was more than 100 µM in each case.

Take `O=C(Nc1cc(Oc2cc(F)c(NC(=O)C3(C(=O)Nc4ccc(F)cc4)CC3)cc2F)ccn1)C1CC1`: the GI50 in [1] is 2.18 µM; in assay [2], 2.85 µM; in [3], 2.33 µM; in assay [4], 3.25 µM; in assay [5], 2.18 µM; in assay [6], 2.68 µM. The GI50 in assay [7] was 2.51 µM; in [8], 2.79 µM; in [9] it was 1.19 µM; in assay [10] it was 3.96 µM. In addition, the TGI was 7.1 µM in [1]; 7.61 µM in [2]; 6.61 µM in assay [3]; more than 31.6 µM in [4]; 5.6 µM in assay [5]; 7.23 µM in [6]. For the same compound, the TGI in assay [7] is 6.85 µM; in [8] it was 8.73 µM; in assay [9], 5.6 µM; in assay [10], more than 46.3 µM.

Take `COc1ccc(C(CC(=O)c2ccccc2)C(C(=O)c2ccccc2)C(c2ccc(OC)cc2)C2C(=O)NC(=S)NC2=O)cc1` (stereo unspecified): the GI50 in [1] was 11.4 µM; in assay [2], 8.67 µM; in [3] it was 13.2 µM; in assay [4], 13.5 µM; in assay [5], 20.1 µM; in [6], 7.32 µM. In addition, the GI50 in assay [7] was 5.61 µM; in [8] it was 10.7 µM; in assay [9], 13.3 µM; in assay [10], 7.42 µM. For the same compound, the TGI in assay [1] was more than 100 µM; in assay [2], 48.5 µM; in assay [3], more than 100 µM; in assay [4], 45.6 µM; in [5], more than 100 µM; in [6] it was 26.1 µM. Besides, the TGI in assay [7] was more than 100 µM; in [8], 34.1 µM; in assay [9] it was 34 µM; in assay [10], 23.6 µM.

Take `CC(=O)OC1CC[C@@]2(C)C(CC[C@]3(C)C2CC=C2[C@@H]4C(C)[C@H](C)CCC4(C)CCC23C)[C@@]1(C)C(=O)O` (stereo partly specified): the TGI in assay [1] came to 69.6 µM; in [2], 46.9 µM; in [3], 43.3 µM; in assay [4] it was 70 µM; in assay [5], 63.5 µM; in assay [6], 39.9 µM. In addition, the TGI amounted to 31.8 µM in assay [7], 45 µM in assay [8], 35.3 µM in [9] and 58.2 µM in assay [10].

For `COc1cccc2c1C(=O)OC2c1cccc2ccccc12` (stereo unspecified), the TGI in [1], in assay [2], in assay [3], in [4], in assay [5] and in assay [6] was more than 100 µM in each case. The TGI in assay [7], in assay [8], in assay [9] and in [10] was more than 100 µM each time.

Turning to `CCOC(=O)/C=C/C(=O)[C@H](CC(C)C)NC(=O)[C@H](Cc1ccccc1)NC(=O)OCc1ccccc1`, the GI50 is 2.42 µM in assay [1]; 2.32 µM in assay [2]; 2.1 µM in [3]; 18.4 µM in [4]; 2.26 µM in assay [5]; 1.78 µM in assay [6]. In addition, the GI50 in [7] is 4.39 µM; in [8], 12.3 µM; in assay [9], 3.99 µM; in [10] it was 13.2 µM. For the same compound, the TGI came out at 9.25 µM in [1]; 4.89 µM in assay [2]; 4.66 µM in [3]; 60.4 µM in [4]; 9.67 µM in [5]; 3.66 µM in assay [6]. For the same compound, the TGI in assay [7] worked out at 16.4 µM; in assay [8] it was 93.1 µM; in [9] it was 16.5 µM; in [10], 27.2 µM.

In the case of `c1ccc([As]=[As]c2ccccc2)cc1` (stereo unspecified), the GI50 was 1.01 µM in assay [1]; 0.666 µM in assay [2]; 0.221 µM in assay [3]; 1.44 µM in assay [4]; 1.19 µM in [5]; 0.973 µM in assay [6]. For the same compound, the GI50 in assay [7] was 1.27 µM; in [8] it was 2.16 µM; in assay [9] it was 1.12 µM; in assay [10], 0.752 µM. Besides, the TGI in [1] was 4.17 µM; in [2], 2.76 µM; in assay [3], 0.876 µM; in [4] it was 3.69 µM; in assay [5], 4.19 µM; in assay [6], 2.39 µM. In addition, the TGI in assay [7] came out at 2.64 µM; in [8], 6.32 µM; in assay [9], 2.41 µM; in assay [10], 2.05 µM.

`CCS(=O)(=O)c1ccc(OC)c(Nc2ncc(-c3ccccc3Cl)o2)c1`: the GI50 in assay [1] is 14.1 µM; in assay [2] it was 14.4 µM; in assay [3], 8.57 µM; in assay [4], 9.9 µM; in [5] it was 11.8 µM; in assay [6], 6.37 µM. Moreover, the GI50 in [7] is 11.4 µM; in assay [8], 8.03 µM; in [9] it was 11.3 µM; in assay [10] it was 18.1 µM. The TGI in assay [1] is more than 25 µM; in assay [2] it was more than 25 µM; in assay [3] it was more than 25 µM; in assay [4], more than 25 µM; in assay [5], more than 21.5 µM; in [6], more than 25 µM. Besides, the TGI in [7], in assay [8], in [9] and in assay [10] was more than 25 µM in each case.

In the case of `CC(=O)c1cc(C(=O)c2ccc3c(c2)Sc2ccccc2N3)c2c(C)cccn12`, the GI50 was 0.556 µM in assay [1]; 0.621 µM in [2]; 0.314 µM in [3]; 0.374 µM in [4]; 0.296 µM in assay [5]; 0.925 µM in [6]. Also, the GI50 in [7] was 0.321 µM; in [8] it was 0.184 µM; in assay [9], 0.145 µM; in [10], 0.325 µM. Also, the TGI was more than 100 µM in [1]; more than 100 µM in [2]; more than 68.5 µM in [3]; more than 31.8 µM in assay [4]; 0.977 µM in assay [5]; 98.4 µM in [6]. Also, the TGI was more than 100 µM in assay [7], 18 µM in assay [8], 38.1 µM in assay [9] and 24 µM in assay [10].
